Test results as given in patent US8183256B2, “Remedy or preventive for integration dysfunction syndrome” (Toray Industries, Inc., priority 2008, dated 2012).

Assays:
[1] = test system: Prepulse Inhibition (PPI); test: Startle response in rat prepulse inhibition (PPI) model; assay type: in vivo; conditions: SD male rats
Excerpt: Further, the fact that there is no risk, in the above-described compound or a pharmaceutically acceptable acid addition salt thereof, of causing impaired information processing related to cognitive deficiencies which is a symptom of schizophrenia can be confirmed by investigating the effect of the compound on the phenomenon wherein the startle response to a startle stimulus (pulse) in an animal is inhibited by presentation of a weak stimulus (prepulse) prior to presentation of a startle stimulus (pulse) (Prepulse Inhibition, PPI) according to the method described in Bio. Psychiatry., 57, 1550, 2005. In this method, inhibition of PPI indicates abnormality in information processing, and is known to reflect cognitive deficiencies, which is a symptom of schizophrenia, and the like.
In the experiments, 8 SD male rats of 9 to 10 weeks old were used per each group. The measurement was carried out using an apparatus for measuring startle responses of small animals (San Diego Instruments). […]

[2] = test system: PCP-induced hyperlocomotion; test: Mouse PCP-induced hyperlocomotion; assay type: in vivo; conditions: ddy male mice, PCP 10 mg/kg s.c.

## c1ccc(C2(N3CCCCC3)CCCCC2)cc1 [Phencyclidine]
[1]; positive control at 4 mg/kg, p<0.05 against the vehicle-administered group
  effect on PPI (% Prepulse Inhibition): statistically significant inhibitory effect on PPI

## C=C1CC[C@@]2(O)[C@H]3Cc4ccc(O)c5c4[C@@]2(CCN3CC2CC2)[C@H]1O5 [Nalmefene]
[2]; test compound at 10 mg/kg s.c.
  effect on the amount of locomotion (PCP-induced hyperlocomotion): did not have any effect

## CN(C(=O)/C=C/c1ccoc1)[C@@H]1CC[C@@]2(O)[C@H]3Cc4ccc(O)c5c4[C@@]2(CCN3CC2CC2)[C@H]1O5.Cl [Compound 1, (−)-17-(Cyclopropylmethyl)-3,14β-Dihydroxy-4,5α-Epoxy-6β-[N-Methyl-Trans-3-(3-Furyl)Acrylamido]Morphinan Hydrochloric Acid Salt]
[1]; 0.03 mg/kg s.c., 30 minutes before stimulation session, 80 dB prepulse, 120 dB pulse
  effect on PPI (% Prepulse Inhibition): did not inhibit PPI
[2]; test compound s.c. 1 minute before PCP, locomotor counts, vs vehicle-administered group
  dose statistically significantly inhibiting PCP-induced hyperlocomotion: ≥ 0.01 mg/kg
